Results as given in PubChem BioAssay (NCI).
Several values for one entry are separate records, joined by “and”; a condition that tells them apart may be missing. Equal values may be shown once.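 Each compound was tested at five concentrations against cells in 96-well plates for 48 hours. GI50 is the concentration that inhibits growth by half. TGI marks complete inhibition of growth.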

Experiments:
Experiment in all cases: NCI-60 cell line screen, 48 h
MDA-MB-231 breast = system: MDA-MB-231 breast
MCF7 breast = system: MCF7 breast
MDA-MB-435 = system: MDA-MB-435

Cc1cc(N2CCCC2)nc(N(CCCNc2ccnc3cc(Cl)ccc23)Cc2ccc3c(c2)OCO3)n1
GI50 (MDA-MB-231 breast): 0.681 µM
TGI (MDA-MB-231 breast): 3.42 µM
GI50 (MCF7 breast): 1.17 µM
TGI (MCF7 breast): 4.98 µM
GI50 (MDA-MB-435): 1.26 µM
TGI (MDA-MB-435): 2.56 µM

Cn1cc(-c2ccc(CNc3cc(-c4cnc5cc(OCCCN6CCCC6)ccn45)ncn3)cc2)cn1
GI50 (MDA-MB-231 breast): 1.91 µM
TGI (MDA-MB-231 breast): 3.56 µM
GI50 (MCF7 breast): 2.45 µM
TGI (MCF7 breast): 10.4 µM
GI50 (MDA-MB-435): 1.71 µM
TGI (MDA-MB-435): 3.19 µM

S=c1ssc(Sc2ccccn2)c1Cl
GI50 (MDA-MB-231 breast): 12 µM
TGI (MDA-MB-231 breast): 24.4 µM
GI50 (MDA-MB-435): 16.8 µM
TGI (MDA-MB-435): 31.5 µM

Cn1cc(-c2ccc3c(c2)CCN3C(=O)Cc2cccc(C(F)(F)F)c2)c2c(N)ncnc21
GI50 (MDA-MB-231 breast): 4.69 µM
TGI (MDA-MB-231 breast): 21.9 µM
GI50 (MCF7 breast): 4.5 µM
TGI (MCF7 breast): 18.4 µM
GI50 (MDA-MB-435): 4.46 µM
TGI (MDA-MB-435): 21.2 µM

Fc1ccc(Nc2nccc(-c3c(-c4ccc(C(F)(F)F)cc4)nn4ncccc34)n2)cc1F
GI50 (MDA-MB-231 breast): > 25 µM
TGI (MDA-MB-231 breast): > 25 µM
GI50 (MCF7 breast): > 20.2 µM
TGI (MCF7 breast): > 25 µM
GI50 (MDA-MB-435): > 25 µM
TGI (MDA-MB-435): > 25 µM

CCCCCc1c(C)[nH]c(/C=C2\N=C(c3ccc[nH]3)C=C2Oc2ccc(Cl)cc2)c1C
GI50 (MDA-MB-231 breast): 0.0269 µM and < 0.01 µM
TGI (MDA-MB-231 breast): 0.0798 µM and 0.157 µM
GI50 (MCF7 breast): 0.0578 µM and 0.0238 µM
TGI (MCF7 breast): 2.15 µM and 3.57 µM
GI50 (MDA-MB-435): 0.0587 µM and 0.0352 µM
TGI (MDA-MB-435): 0.334 µM and 0.385 µM

CCOC(=O)c1cnn(-c2ccnc3c(C(F)(F)F)cccc23)c1N
GI50 (MDA-MB-231 breast): > 100 µM
TGI (MDA-MB-231 breast): > 100 µM
GI50 (MCF7 breast): > 100 µM
TGI (MCF7 breast): > 100 µM
GI50 (MDA-MB-435): > 100 µM
TGI (MDA-MB-435): > 100 µM

COc1cc2cc(Oc3ccc(NC(=O)c4ccc(Cl)c(C(F)(F)F)c4)cc3)c(C)nc2cc1OC
GI50 (MDA-MB-231 breast): 11.4 µM
TGI (MDA-MB-231 breast): 27.5 µM
GI50 (MCF7 breast): 8.95 µM
TGI (MCF7 breast): > 100 µM
GI50 (MDA-MB-435): 14.7 µM
TGI (MDA-MB-435): > 100 µM

Fc1ccc(Nc2nc(NCCNc3ccnc4cc(Cl)ccc34)nc(N3CCOCC3)n2)cc1
GI50 (MDA-MB-231 breast): 3.05 µM
TGI (MDA-MB-231 breast): 11.1 µM
GI50 (MCF7 breast): 3.43 µM
TGI (MCF7 breast): 14.7 µM
GI50 (MDA-MB-435): 2.22 µM
TGI (MDA-MB-435): 5.38 µM

COc1cnc2c(c1)C(=O)c1c-2n(CCCN2CCCC2)c(=O)c2cc(Cl)ccc12
GI50 (MDA-MB-231 breast): 6.15 µM
TGI (MDA-MB-231 breast): 15.2 µM
GI50 (MDA-MB-435): 5.06 µM
TGI (MDA-MB-435): 10.9 µM

CCN1C(=O)N(CC)C2C1NN=c1s/c(=C3\C(=O)N(C)c4ccccc43)c(=O)n12 (configuration not stated)
GI50 (MDA-MB-231 breast): 1.99 µM
TGI (MDA-MB-231 breast): 34.6 µM
GI50 (MCF7 breast): 0.373 µM
TGI (MCF7 breast): 31.2 µM
GI50 (MDA-MB-435): 0.221 µM
TGI (MDA-MB-435): 0.663 µM
